Experimental findings from patent US20260294922A1, “Inhibitors of JUN N-Terminal Kinases (JNK1, JNK2, and/or JNK3) and Mitogen-Activated Protein Kinases (MAPK8, MAPK9, and/or MAPK10) and Methods of Using Same” (Baylor College of Medicine, priority 2023, published 2026) are described below.

Molecules are shown by their SMILES. ≈ marks a conversion by molar mass, not a printed value.

For one data set, the target named is JNK2 (Homo sapiens, UniProt P45984). Nature of the data set: JNK2 kinase (intrinsic ATPase, Kinase-Glo) assay. Particulars: Table 3a; read-out: Kd JNK2. Type of data set: biochemical. For orientation: Kinase-Glo reads ATP consumption through a luciferase reaction.
The target in data set [1] is T1, JNK3 (Homo sapiens, UniProt P53779). Nature of the data set: JNK3 kinase (intrinsic ATPase, Kinase-Glo) assay. Format: biochemical. The note with it: Table 3a; read-out: Kd JNK3.
In another data set the target is T2, CSNK1D (Homo sapiens, UniProt P48730).
T2 construct: purchased ThermoFisher (SelectScreen)
The experiment in a line: ThermoFisher SelectScreen, CSNK1D. Format: binding.

The next data set deals with T3, CSNK1E (Homo sapiens, UniProt P49674).
T3 construct: purchased ThermoFisher (SelectScreen)
The experiment in a line: ThermoFisher SelectScreen, CSNK1E. Type of data set: binding.

For the next data set, the target named is T4, CSNK1G1 (Homo sapiens, UniProt Q9HCP0).
T4 construct: purchased ThermoFisher (SelectScreen)
Nature of the data set: ThermoFisher SelectScreen, CSNK1G1. Format: binding. Here is the method:
(§1) To mitigate violation of the linear initial velocity principle, which is a problem in end-point assays when doing dose-responses, the enzyme concentration was carefully optimized, in a total assay volume of 25 μL. The assay was performed using 10 μM ATP, 0.02% Tween-20, kinase buffer from Cell Signaling (#9802) in white 384-well plates. The kinase reaction was done for 30 or 60 min at 30° C., and detection of leftover ATP was measured according to Promega's protocol. […] Fractional activities were obtained from normalized data. Non-linear regression (GraphPad Prism7) and a modified Morrison equation for tight binding was used to determine apparent Ki values for inhibitors, assuming no particular mode of inhibition. An orthogonal binding assay (LanthaScreen) was outsourced to ThermoFisher Scientific's SelectScreen Services to determine IC50 values.
(§2) One of the earliest compounds to be synthesized with favorable enzymatic activity towards JNK1 and JNK3 was CDD-2346. A KINOMEscan was performed for CDD-2346 to establish whether the selectivity of this chemical scaffold was suitable or required optimization. […] To confirm that the activity against each kinase was a true result and not a false positive, CDD-2346 was evaluated in kinase assays using ThermoFisher SelectScreen platform. The results from these assays are provided herein (Table 4). The important innovative steps described are the optimization of selectivity a) for JNK isoforms; b) for kinases considered “in-pathway”; and c) to avoid kinases considered “out-of-pathway”.
No activity of CDD-2728 was detected for Atypical, Mutant, or Lipid kinases. To confirm CDD-2728 inhibition results in the KINOMEscan analysis, individual binding assays were performed on the kinases to which CDD-2728 bound using ThermoFisher SelectScreen.

The next data set concerns the target T5, DYRK2 (Homo sapiens, UniProt Q92630).
T5 construct: purchased ThermoFisher (SelectScreen)
T5 sequence (Q92630 1-601): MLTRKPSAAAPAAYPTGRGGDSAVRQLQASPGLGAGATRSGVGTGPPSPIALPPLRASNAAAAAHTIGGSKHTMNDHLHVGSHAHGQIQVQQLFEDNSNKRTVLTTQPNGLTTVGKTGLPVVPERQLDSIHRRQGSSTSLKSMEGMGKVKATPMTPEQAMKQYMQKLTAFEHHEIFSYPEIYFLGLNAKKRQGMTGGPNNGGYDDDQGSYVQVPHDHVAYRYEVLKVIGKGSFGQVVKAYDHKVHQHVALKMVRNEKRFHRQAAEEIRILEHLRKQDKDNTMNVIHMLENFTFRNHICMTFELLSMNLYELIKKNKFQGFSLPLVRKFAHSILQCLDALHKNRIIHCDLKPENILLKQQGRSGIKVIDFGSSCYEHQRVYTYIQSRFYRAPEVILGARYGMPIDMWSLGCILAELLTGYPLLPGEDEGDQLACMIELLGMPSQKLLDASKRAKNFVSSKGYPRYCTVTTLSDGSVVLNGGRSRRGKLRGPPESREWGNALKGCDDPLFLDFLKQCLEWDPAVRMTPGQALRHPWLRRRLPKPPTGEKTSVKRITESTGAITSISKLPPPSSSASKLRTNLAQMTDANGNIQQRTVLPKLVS
Nature of the data set: ThermoFisher SelectScreen, DYRK2. Format: binding. Particulars: Table 4. Here is the method:
as §1, §2

Another data set deals with T6, MEK4 (Homo sapiens, UniProt P45985).
T6 construct: purchased ThermoFisher (SelectScreen)
T6 sequence (P45985 1-399): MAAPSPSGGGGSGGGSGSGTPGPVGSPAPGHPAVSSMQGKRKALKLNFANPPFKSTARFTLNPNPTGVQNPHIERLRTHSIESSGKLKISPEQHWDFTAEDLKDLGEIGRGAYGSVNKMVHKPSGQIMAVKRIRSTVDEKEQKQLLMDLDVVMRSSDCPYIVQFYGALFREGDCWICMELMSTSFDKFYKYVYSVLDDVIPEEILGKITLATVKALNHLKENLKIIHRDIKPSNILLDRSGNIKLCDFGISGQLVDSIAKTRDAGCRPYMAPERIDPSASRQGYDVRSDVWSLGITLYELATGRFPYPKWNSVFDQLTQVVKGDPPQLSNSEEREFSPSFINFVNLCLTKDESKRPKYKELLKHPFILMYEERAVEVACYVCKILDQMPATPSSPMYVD
The experiment in a line: ThermoFisher SelectScreen, MEK4. Type of data set: binding.

In another data set the target is T7, MYLK (Homo sapiens, UniProt Q15746).
T7 construct: purchased ThermoFisher (SelectScreen, outsourced service)
Nature of the data set: ThermoFisher SelectScreen, MYLK. The note with it: Table 4. Format: binding. The protocol:
as §1, §2

The next data set has as its target T8, hVPS34 (Homo sapiens, UniProt Q8NEB9).
T8 construct: purchased ThermoFisher (SelectScreen, outsourced service)
The experiment in a line: ThermoFisher SelectScreen, hVPS34. Format: binding. Particulars: Table 4. The protocol:
as §1, §2

In another data set the target is T9, PIP5K1C (Homo sapiens, UniProt O60331).
T9 construct: purchased ThermoFisher (SelectScreen, outsourced service)
Nature of the data set: ThermoFisher SelectScreen, PIP5K1C. Type of data set: binding. Particulars: Table 4. Here is the method: as §1, §2

Data set [2] has as its target T1, JNK3. The experiment in a line: ThermoFisher SelectScreen, JNK3. Type of data set: binding.
A further data set deals with JNK1 (Homo sapiens, UniProt P45983). Nature of the data set: Promega NanoBRET intracellular target engagement (tracer K10 displacement), JNK1. Format: cell-based.
The target in data set [3] is T1, JNK3. Nature of the data set: Promega NanoBRET intracellular target engagement (tracer K10 displacement), JNK3. Type of data set: cell-based. For orientation: Bioluminescence resonance energy transfer reports proximity on the nanometre scale.
Data set [4] can be described thus: In vitro metabolism in mouse liver microsomes. Particulars: mouse, microsomes. The protocol:
The target product profile seeks to deliver JNK inhibitor as a once daily oral administration. To prioritize compounds for further development, in vitro metabolism of several CDD JNK inhibitors were determined to approximate the plasma half-life and the rate of metabolism of the compounds in vivo.

T4 sequence (Q9HCP0 whole entry): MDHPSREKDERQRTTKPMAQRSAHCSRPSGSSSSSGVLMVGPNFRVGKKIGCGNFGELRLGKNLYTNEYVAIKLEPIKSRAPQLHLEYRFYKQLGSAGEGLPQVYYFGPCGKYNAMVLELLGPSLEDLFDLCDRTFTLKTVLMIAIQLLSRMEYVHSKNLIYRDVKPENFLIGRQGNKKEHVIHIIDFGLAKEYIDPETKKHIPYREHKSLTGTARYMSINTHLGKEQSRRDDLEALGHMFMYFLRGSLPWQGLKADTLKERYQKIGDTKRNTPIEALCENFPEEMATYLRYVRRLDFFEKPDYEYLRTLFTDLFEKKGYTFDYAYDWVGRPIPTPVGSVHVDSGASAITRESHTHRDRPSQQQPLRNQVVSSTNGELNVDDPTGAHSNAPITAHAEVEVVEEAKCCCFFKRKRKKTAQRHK
T2 sequence (P48730 whole entry): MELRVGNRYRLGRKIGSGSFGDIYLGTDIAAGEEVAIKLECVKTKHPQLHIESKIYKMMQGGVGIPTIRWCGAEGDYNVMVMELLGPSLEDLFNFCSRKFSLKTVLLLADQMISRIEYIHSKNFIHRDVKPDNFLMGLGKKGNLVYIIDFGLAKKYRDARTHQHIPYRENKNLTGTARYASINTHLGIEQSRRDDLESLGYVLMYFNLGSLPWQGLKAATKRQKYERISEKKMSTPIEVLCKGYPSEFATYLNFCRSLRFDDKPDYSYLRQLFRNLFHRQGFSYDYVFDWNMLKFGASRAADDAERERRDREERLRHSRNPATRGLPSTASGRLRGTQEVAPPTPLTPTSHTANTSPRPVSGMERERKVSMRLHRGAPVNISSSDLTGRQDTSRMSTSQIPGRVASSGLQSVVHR
Chain of JNK1 (P45983 whole entry): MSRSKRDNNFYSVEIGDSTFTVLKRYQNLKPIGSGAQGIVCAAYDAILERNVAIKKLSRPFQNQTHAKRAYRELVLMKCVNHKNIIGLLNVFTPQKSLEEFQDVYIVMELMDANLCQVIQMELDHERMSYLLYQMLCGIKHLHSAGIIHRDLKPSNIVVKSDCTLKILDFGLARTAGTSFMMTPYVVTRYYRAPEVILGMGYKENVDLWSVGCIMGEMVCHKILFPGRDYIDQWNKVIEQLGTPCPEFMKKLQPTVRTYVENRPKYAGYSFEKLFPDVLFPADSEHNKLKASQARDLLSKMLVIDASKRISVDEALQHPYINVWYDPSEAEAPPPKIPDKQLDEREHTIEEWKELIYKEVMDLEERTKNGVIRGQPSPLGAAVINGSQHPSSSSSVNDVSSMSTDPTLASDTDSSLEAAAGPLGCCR
T3 sequence (P49674 whole entry): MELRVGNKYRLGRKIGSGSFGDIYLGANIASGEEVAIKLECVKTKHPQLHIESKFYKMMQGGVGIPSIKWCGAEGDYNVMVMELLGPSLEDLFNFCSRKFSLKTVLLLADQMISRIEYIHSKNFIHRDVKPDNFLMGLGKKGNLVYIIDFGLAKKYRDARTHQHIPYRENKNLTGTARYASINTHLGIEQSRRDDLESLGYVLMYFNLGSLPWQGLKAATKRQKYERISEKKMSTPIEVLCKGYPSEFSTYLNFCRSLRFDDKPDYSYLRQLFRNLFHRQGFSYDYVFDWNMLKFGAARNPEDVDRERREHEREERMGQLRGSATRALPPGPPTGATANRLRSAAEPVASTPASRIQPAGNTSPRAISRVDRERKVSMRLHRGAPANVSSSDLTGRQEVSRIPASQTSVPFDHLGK
T8 sequence (Q8NEB9 whole entry): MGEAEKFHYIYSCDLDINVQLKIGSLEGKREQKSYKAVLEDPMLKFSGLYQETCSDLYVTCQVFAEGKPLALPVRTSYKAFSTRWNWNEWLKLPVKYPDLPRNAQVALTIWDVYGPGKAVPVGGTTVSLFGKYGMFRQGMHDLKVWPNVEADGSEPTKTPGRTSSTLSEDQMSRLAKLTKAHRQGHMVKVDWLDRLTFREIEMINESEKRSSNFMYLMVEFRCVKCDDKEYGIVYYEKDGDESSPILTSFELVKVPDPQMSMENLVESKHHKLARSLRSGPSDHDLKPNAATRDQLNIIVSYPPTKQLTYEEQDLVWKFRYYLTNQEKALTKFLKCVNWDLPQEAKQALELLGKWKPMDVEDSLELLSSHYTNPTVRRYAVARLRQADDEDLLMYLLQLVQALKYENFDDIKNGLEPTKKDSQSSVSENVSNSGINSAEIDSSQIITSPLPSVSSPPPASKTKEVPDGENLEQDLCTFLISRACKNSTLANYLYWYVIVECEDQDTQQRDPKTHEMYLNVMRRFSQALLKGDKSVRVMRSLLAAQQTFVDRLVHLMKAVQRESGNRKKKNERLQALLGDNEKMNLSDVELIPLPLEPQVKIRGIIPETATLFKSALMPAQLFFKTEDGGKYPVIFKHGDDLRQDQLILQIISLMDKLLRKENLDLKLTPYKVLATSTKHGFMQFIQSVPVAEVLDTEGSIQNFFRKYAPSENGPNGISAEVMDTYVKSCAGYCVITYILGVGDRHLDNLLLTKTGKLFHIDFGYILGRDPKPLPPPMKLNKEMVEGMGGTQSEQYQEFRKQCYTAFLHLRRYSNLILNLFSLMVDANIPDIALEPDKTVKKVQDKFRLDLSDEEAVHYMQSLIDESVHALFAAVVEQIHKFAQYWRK
T9 sequence (O60331 whole entry): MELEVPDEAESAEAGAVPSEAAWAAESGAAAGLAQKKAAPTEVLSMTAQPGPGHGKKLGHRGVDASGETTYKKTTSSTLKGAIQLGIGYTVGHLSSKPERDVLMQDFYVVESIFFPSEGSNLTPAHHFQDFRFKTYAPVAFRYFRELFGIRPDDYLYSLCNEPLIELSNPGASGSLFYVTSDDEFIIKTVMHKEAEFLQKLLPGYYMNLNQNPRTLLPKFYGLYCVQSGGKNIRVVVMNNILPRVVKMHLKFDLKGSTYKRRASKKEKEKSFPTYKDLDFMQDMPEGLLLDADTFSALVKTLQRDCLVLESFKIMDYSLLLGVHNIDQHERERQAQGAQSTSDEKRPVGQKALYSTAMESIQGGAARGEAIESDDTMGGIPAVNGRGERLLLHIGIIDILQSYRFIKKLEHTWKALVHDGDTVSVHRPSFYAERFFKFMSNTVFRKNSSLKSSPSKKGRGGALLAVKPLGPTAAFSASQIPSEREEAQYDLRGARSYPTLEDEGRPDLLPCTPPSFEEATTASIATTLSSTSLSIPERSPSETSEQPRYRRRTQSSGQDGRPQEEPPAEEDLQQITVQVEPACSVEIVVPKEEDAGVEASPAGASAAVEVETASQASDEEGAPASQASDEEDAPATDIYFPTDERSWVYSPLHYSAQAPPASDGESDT
Chain of JNK2 (P45984 whole entry): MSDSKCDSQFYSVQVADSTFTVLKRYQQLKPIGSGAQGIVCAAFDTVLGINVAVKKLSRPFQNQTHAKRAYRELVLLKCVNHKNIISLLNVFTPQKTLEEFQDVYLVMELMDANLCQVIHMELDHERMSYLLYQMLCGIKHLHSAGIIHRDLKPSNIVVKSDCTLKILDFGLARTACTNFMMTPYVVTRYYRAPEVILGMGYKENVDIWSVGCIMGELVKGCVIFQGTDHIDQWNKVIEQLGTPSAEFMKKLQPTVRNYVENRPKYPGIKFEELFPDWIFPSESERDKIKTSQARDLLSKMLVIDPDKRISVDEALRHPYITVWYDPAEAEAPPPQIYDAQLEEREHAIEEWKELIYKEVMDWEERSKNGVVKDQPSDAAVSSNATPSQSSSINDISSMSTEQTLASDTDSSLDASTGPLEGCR
T1 sequence (P53779 whole entry): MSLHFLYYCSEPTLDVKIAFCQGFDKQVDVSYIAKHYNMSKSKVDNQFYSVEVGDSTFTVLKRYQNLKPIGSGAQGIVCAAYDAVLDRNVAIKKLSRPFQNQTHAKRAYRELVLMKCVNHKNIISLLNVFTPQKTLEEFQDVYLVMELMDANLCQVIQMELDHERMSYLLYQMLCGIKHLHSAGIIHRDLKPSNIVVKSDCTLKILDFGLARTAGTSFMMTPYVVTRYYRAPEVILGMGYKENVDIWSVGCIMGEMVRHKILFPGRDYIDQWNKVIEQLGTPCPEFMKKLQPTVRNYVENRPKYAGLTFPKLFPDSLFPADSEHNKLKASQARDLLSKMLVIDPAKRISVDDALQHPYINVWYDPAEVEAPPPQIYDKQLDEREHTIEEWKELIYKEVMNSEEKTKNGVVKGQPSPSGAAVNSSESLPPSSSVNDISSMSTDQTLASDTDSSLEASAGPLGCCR

What is called Kd is the concentration at which binding is half-saturated. Broadly, the IC50 is the concentration needed to halve the response being measured. Broadly, the half-life is the time needed for the level to fall by half in the phase considered. A low value points to rapid decline. One may read the solubility as the dissolved amount per volume that the medium holds. Read a low solubility as little dissolved substance. With `CNCc1ccc(NC(=O)c2ccn3ncc(-c4cnc5[nH]ccc5c4)c3c2)cc1` [CDD-2346, N-(4-((methylamino)methyl)phenyl)-3-(1H-pyrrolo[2,3-b]pyridin-5-yl)pyrazolo[1,5-a]pyridine-5-carboxamide], the dissociation constant Kd at JNK2 came to 0.94 ± 0.22 nM; at JNK3 [1], 0.65 ± 0.16 nM; on CSNK1D, 55 nM; on CSNK1E it was 48 nM; on CSNK1G1 (Table 4), 133 nM; at DYRK2 it was 78 nM. In addition, the Kd was 18 nM at MEK4; 442 nM at MYLK; 109 nM at hVPS34; 811 nM at PIP5K1C; 0.65 nM at JNK3 [2]. In addition, the half-maximal inhibitory concentration (IC50) at JNK1 was 5100 nM; at JNK3 [3] it was 3000 nM. In addition, the “inhibition of binding to JNK1, JNK2, and JNK3 relative to staurosporine” value at JNK1 (NanoBRET) was “superior to staurosporine”. Moreover, the half-life in data set [4] came out at 68.7 min. In addition, in “Solubility”, the solubility was determined as 167 µM (≈ 66.1 µg/mL).
`CN(C)Cc1ccc(NC(=O)c2ccn3ncc(-c4cnc5[nH]ccc5c4)c3c2)cc1` [CDD-2482, N-(4-((dimethylamino)methyl)phenyl)-3-(1H-pyrrolo[2,3-b]pyridin-5-yl)pyrazolo[1,5-a]pyridine-5-carboxamide]: the Kd at JNK2 was 0.74 ± 0.09 nM; on JNK3 [1], 0.45 ± 0.04 nM; at CSNK1D, 30 nM; on CSNK1E, 29 nM; at CSNK1G1 (Table 4), 52 nM; on DYRK2 it was 48 nM. Further, the equilibrium dissociation constant (Kd) came out at 9 nM on MEK4; 501 nM at MYLK; 255 nM at hVPS34; 13200 nM at PIP5K1C; 0.45 nM on JNK3 [2]. The half-life in data set [4] amounted to 16.6 min. The compound also yielded a solubility in “Solubility” of 176 µM (≈ 72.2 µg/mL).
Turning to `O=C(Nc1ccc(F)cc1)c1ccn2ncc(-c3cnc4[nH]ccc4c3)c2c1` [CDD-2486, N-(4-fluorophenyl)-3-(1H-pyrrolo[2,3-b]pyridin-5-yl)pyrazolo[1,5-a]pyridine-5-carboxamide], the Kd on JNK2 amounted to 0.67 ± 0.09 nM; at JNK3 [1], 0.86 ± 0.05 nM; at CSNK1D, 2350 nM; at CSNK1E, 235 nM; on CSNK1G1 (Table 4), 14400 nM; on DYRK2, 288 nM. Besides, the Kd on MEK4 was determined as 26.2 nM; at MYLK, 942 nM; at hVPS34, 1140 nM; at PIP5K1C, 1150 nM; at JNK3 [2] it was 4.34 nM. Moreover, the IC50 at JNK1 came out at 770 nM; at JNK3 [3] it was 468 nM. Moreover, the half-life in data set [4] came to 10.8 min. Further, the concentration in solution in the data set “Solubility” (solubility) was 0.3 µM (≈ 0.111 µg/mL).
`CN(C)C(=O)c1cc(NC(=O)c2cc3c(-c4cnc5[nH]ccc5c4)cccc3s2)ccc1O` [CDD-2728, N-(3-(dimethylcarbamoyl)-4-hydroxyphenyl)-4-(1H-pyrrolo[2,3-b]pyridin-5-yl)benzo[b]thiophene-2-carboxamide]: the equilibrium dissociation constant (Kd) stood at 821 nM on CSNK1D, 1070 nM at CSNK1E, 4400 nM on CSNK1G1 (Table 5) and 18 nM at MEK4. The IC50 at JNK1 worked out at 599 nM; at JNK3 [3] it was 534 nM. In addition, the “improvement of NanoBRET IC50 for JNK1 (CDD-2346/CDD-2728)” value at JNK1 (relative to CDD-2346) came out at 8.5 fold. The compound also gave a half-life in [4] of 85.2 min. In addition, the concentration in solution in the data set “Solubility” (solubility) came to 19.4 µM (≈ 8.86 µg/mL).
